In US8378117B2 (priority 2005, dated 2013):
Like-named read-outs stand apart in the source and are kept apart here.

How the values were obtained:
CB1 receptor = target: T1, CB1 receptor (Homo sapiens, UniProt P21554); test: Binding assay for CB1 agonists or inverse agonists (SK-N-MC membranes, [3H]-CP-55,940); settings: for inhibition at 1 µM: read-out: CB1 receptor binding percent inhibition, test concentration 1 μM (footnote 1); for inhibition at 0.25 µM: read-out: CB1 receptor binding percent inhibition, test concentration 0.25 μM (footnote 8); for CB1 receptor binding average percent inhibition: value shown is an average percent inhibition (footnote 5), concentration not given
T1 construct: expressed in transfected cells
Method: (§1) The human CB1 and CB2 receptors were stably expressed in SK-N-MC cells transfected with pcDNA3 CB-1 (human) or pcDNA3 CB-2 (human). The cells were grown in T-180 cell culture flasks under standard cell culture conditions at 37° C. in a 5% CO2 atmosphere. The cells were harvested by trysinization and homogenized in a homogenization buffer (10 mM Tris, 0.2 mM MgCl2, 5 mM KCl, with protease inhibitors aprotinin, leupeptin, pepstatin A and bacitracin) and centrifuged (2000 g). The supernatant was then centrifuged in 2M sucrose (31,300 g) to produce a semi-purified membrane pellet. The pellet was resuspended in homogenization and stored at −80° C.
(§2) On the day of the assay, the pellet was thawed on ice and diluted in assay buffer (50 mM Tris-HCl, 5 mM MgCl2, 2.5 mM EDTA, 0.5 mg/mL fatty acid free bovine serum aldumin, pH 7.5). The diluted membrane pellet was added with buffer, either a test compound or vehicle standard and the radioligand [H]^3+-CP-55,940 (0.2 mM) to the wells of a 96-well polypropylene plate. Non-specific binding was measured in wells containing WIN 55,212 (10 uM). The plate was covered and incubated for 90 minutes at 30° C. The contents were then aspirated onto a Packard Unifilter GF/C filter bottom plate prewet with 0.5% polyethyleneimine. The wells of the polypropylene plate were rinsed and aspirated seven times with a 0.9% saline-0.5% Tween 20 solution. The Unifilter plate was dried, a scintillation cocktail was added to each well and the counts representing binding were quantitated in a TopCount scintillation counter.
(§3) For compounds tested, an IC50 binding value was obtained from percent inhibition studies in which various test concentrations were used. The binding value was calculated by linear regression.

CB2 receptor = target: T2, CB2 receptor (Homo sapiens, UniProt P34972); test: Binding assay for CB2 agonists or inverse agonists (SK-N-MC membranes, [3H]-CP-55,940); settings: for CB2 receptor binding percent inhibition: test concentration not stated
T2 construct: expressed in transfected cells
Method: as §1
as §2, with “The diluted membrane pellet was added with buffer, either a test compound or vehicle standard and the radioligand [H]^3+-CP-55,940 (0.2 mM) to the wells of a 96-well polypropylene plate. Non-specific binding was measured in wells containing WIN 55,212 (10 uM).” left out
as §3

T1 sequence (P21554 whole entry): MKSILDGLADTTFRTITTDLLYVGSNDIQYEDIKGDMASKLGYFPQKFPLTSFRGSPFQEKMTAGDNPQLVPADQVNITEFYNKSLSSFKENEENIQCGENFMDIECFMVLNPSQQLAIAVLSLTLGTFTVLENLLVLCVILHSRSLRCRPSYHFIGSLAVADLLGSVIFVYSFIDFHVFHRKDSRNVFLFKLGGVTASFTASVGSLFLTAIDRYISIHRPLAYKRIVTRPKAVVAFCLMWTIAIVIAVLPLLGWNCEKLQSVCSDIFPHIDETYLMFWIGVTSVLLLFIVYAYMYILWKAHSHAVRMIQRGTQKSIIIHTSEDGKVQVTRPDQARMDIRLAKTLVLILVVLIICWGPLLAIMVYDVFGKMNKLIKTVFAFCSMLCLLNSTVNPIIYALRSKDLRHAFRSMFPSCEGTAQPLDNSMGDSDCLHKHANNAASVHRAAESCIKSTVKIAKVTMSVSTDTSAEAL
T2 sequence (P34972 whole entry): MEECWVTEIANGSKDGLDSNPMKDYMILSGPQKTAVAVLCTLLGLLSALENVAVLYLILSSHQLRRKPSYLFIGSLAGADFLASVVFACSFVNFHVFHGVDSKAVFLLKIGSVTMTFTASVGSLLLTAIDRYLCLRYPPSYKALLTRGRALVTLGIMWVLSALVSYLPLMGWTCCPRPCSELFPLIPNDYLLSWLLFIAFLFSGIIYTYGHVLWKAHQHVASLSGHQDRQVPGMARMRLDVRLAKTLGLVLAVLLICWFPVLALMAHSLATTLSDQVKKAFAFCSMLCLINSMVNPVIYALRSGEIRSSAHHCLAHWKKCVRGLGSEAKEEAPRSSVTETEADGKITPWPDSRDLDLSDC

| Structure (SMILES) | inhibition at 1 µM (CB1 receptor) | CB2 receptor binding percent inhibition (CB2 receptor) | further results |
| --- | --- | --- | --- |
| O=C(NC1CC1)c1nn(C2CCCCC2)c2c1CCCCC2Cc1cccc(F)c1 (centres unmarked) [Cpd 49, 1-cyclohexyl-8-(3-fluoro-benzyl)-1,4,5,6,7,8-hexahydro-cycloheptapyrazole-3-carboxylic acid cyclopropylamide] | 33% | 9% | – |
| O=C(NN1CCCCC1)c1nn(C2CCCCC2)c2c1CCCCC2Cc1cccc(F)c1 (centres unmarked) [Cpd 50, 1-cyclohexyl-8-(3-fluoro-benzyl)-1,4,5,6,7,8-hexahydro-cycloheptapyrazole-3-carboxylic acid piperidin-1-ylamide] | 32% | 31% | – |
| O=C(NC1CCCCC1)c1nn(C2CCCCC2)c2c1CCCCC2Cc1cccc(F)c1 (centres unmarked) [Cpd 51, 1-cyclohexyl-8-(3-fluoro-benzyl)-1,4,5,6,7,8-hexahydro-cycloheptapyrazole-3-carboxylic acid cyclohexylamide] | 36% | 30% | – |
| O=C(NC1CCCC1)c1nn(C2CCCCC2)c2c1CCCCC2Cc1cccc(F)c1 (centres unmarked) [Cpd 52, 1-cyclohexyl-8-(3-fluoro-benzyl)-1,4,5,6,7,8-hexahydro-cycloheptapyrazole-3-carboxylic acid cyclopentylamide] | 26% | 21% | – |
| O=C(NCc1ccccc1)c1nn(C2CCCCC2)c2c1CCCCC2Cc1cccc(F)c1 (centres unmarked) [Cpd 53, 1-cyclohexyl-8-(3-fluoro-benzyl)-1,4,5,6,7,8-hexahydro-cycloheptapyrazole-3-carboxylic acid benzylamide] | 33% | 52% | – |
| O=C(c1nn(C2CCCCC2)c2c1CCCCC2Cc1cccc(F)c1)N1CCN(c2ccccc2)CC1 (centres unmarked) [Cpd 54, [1-cyclohexyl-8-(3-fluoro-benzyl)-1,4,5,6,7,8-hexahydro-cycloheptapyrazol-3-yl]-(4-phenyl-piperazin-1-yl)-methanone] | 18% | 41% | – |
| O=C(NC1CC1)c1nn(C2CCCCC2)c2c1CCCCC2Cc1ccc(F)cc1 (centres unmarked) [Cpd 56, 1-cyclohexyl-8-(4-fluoro-benzyl)-1,4,5,6,7,8-hexahydro-cycloheptapyrazole-3-carboxylic acid cyclopropylamide] | 0% | 42% | – |
| O=C(NC1CCC1)c1nn(C2CCCCC2)c2c1CCCCC2Cc1ccc(F)cc1 (centres unmarked) [Cpd 57, 1-cyclohexyl-8-(4-fluoro-benzyl)-1,4,5,6,7,8-hexahydro-cycloheptapyrazole-3-carboxylic acid cyclobutylamide] | 35% | 29% | – |
| O=C(NC1CCCC1)c1nn(C2CCCCC2)c2c1CCCCC2Cc1ccc(F)cc1 (centres unmarked) [Cpd 59, 1-cyclohexyl-8-(4-fluoro-benzyl)-1,4,5,6,7,8-hexahydro-cycloheptapyrazole-3-carboxylic acid cyclopentylamide] | 27% | 60% | – |
| O=C(c1nn(C2CCCCC2)c2c1CCCCC2Cc1ccc(F)cc1)N1CCN(c2ccccc2)CC1 (centres unmarked) [Cpd 60, [1-cyclohexyl-8-(4-fluoro-benzyl)-1,4,5,6,7,8-hexahydro-cycloheptapyrazol-3-yl]-(4-phenyl-piperazin-1-yl)-methanone] | 38% | 38% | – |
| O=C(NCc1ccccc1)c1nn(C2CCCCC2)c2c1CCCCC2Cc1ccc(F)cc1 (centres unmarked) [Cpd 61, 1-cyclohexyl-8-(4-fluoro-benzyl)-1,4,5,6,7,8-hexahydro-cycloheptapyrazole-3-carboxylic acid benzylamide] | 36% | 71% | – |
| O=C(NN1CCCCC1)c1nn(C2CCCCC2)c2c1CCCCC2Cc1ccc(F)cc1 (centres unmarked) [Cpd 62, 1-cyclohexyl-8-(4-fluoro-benzyl)-1,4,5,6,7,8-hexahydro-cycloheptapyrazole-3-carboxylic acid piperidin-1-ylamide] | 5% | 5% | – |
| COC(=O)[C@H](Cc1ccc(F)cc1)NC(=O)c1nn(C2CCCCC2)c2c1CCCCC2Cc1ccc(F)cc1 (stereo partly drawn) [Cpd 63, (2S)-2-{[1-cyclohexyl-8-(4-fluoro-benzyl)-1,4,5,6,7,8-hexahydro-cycloheptapyrazole-3-carbonyl]-amino}-3-(4-fluoro-phenyl)-propionic acid methyl ester] | 29% | 69% | – |
| C[C@H](NC(=O)c1nn(C2CCCCC2)c2c1CCCCC2Cc1ccc(F)cc1)c1ccccc1 (stereo partly drawn) [Cpd 64, 1-cyclohexyl-8-(4-fluoro-benzyl)-1,4,5,6,7,8-hexahydro-cycloheptapyrazole-3-carboxylic acid [(1S)-1-phenyl-ethyl]-amide] | 51% | – | IC50 (CB2 receptor; calculated by linear regression from percent inhibition at various test concentrations, read-out: Cannabinoid CB2 Receptor Binding IC50): 600 nM; inhibition at 1 µM (CB2 receptor; test concentration 1 μM (footnote 1), read-out: CB2 receptor binding percent inhibition): 70% |
| O=C(NCc1ccc(C(F)(F)F)cc1)c1nn(C2CCCCC2)c2c1CCCCC2Cc1ccc(F)cc1 (centres unmarked) [Cpd 65, 1-cyclohexyl-8-(4-fluoro-benzyl)-1,4,5,6,7,8-hexahydro-cycloheptapyrazole-3-carboxylic acid 4-trifluoromethyl-benzylamide] | 29% | 52% | – |
| O=C(N[C@@H](CO)c1ccccc1)c1nn(C2CCCCC2)c2c1CCCC[C@@H]2Cc1ccc(F)cc1 [Cpd 66, (8R)-1-cyclohexyl-8-(4-fluoro-benzyl)-1,4,5,6,7,8-hexahydro-cycloheptapyrazole-3-carboxylic acid [(1R)-2-hydroxy-1-phenyl-ethyl]-amide] | 16% | 33% | – |
| O=C(NN1CCCCC1)c1nn(Cc2ccccc2)c2c1CCCCC2c1ccccc1 (centres unmarked) [Cpd 68, 1-benzyl-8-phenyl-1,4,5,6,7,8-hexahydro-cycloheptapyrazole-3-carboxylic acid piperidin-1-ylamide] | – | – | inhibition at 0.25 µM (CB1 receptor): 0%; inhibition at 0.25 µM (CB2 receptor; read-out: CB2 receptor binding percent inhibition, test concentration 0.25 μM (footnote 8)): 27% |
| O=C(NCc1cccc(C(F)(F)F)c1)c1nn(Cc2ccccc2)c2c1CCCCC2c1ccccc1 (centres unmarked) [Cpd 69, 1-benzyl-8-phenyl-1,4,5,6,7,8-hexahydro-cycloheptapyrazole-3-carboxylic acid 3-trifluoromethyl-benzylamide] | – | – | inhibition at 0.25 µM (CB1 receptor): 23%; inhibition at 0.25 µM (CB2 receptor; test concentration 0.25 μM (footnote 8), read-out: CB2 receptor binding percent inhibition): 12% |
| O=C(NC1CCC1)c1nn(-c2ccc(Cl)cc2Cl)c2c1CCCCC2Cc1ccc(F)cc1 (centres unmarked) [Cpd 70, 1-(2,4-dichloro-phenyl)-8-(4-fluoro-benzyl)-1,4,5,6,7,8-hexahydro-cycloheptapyrazole-3-carboxylic acid cyclobutylamide] | – | 3% | CB1 receptor binding average percent inhibition (CB1 receptor): ^(5)37% |
| CC12CCC(C1)C(C)(C)[C@H]2NC(=O)c1nn(-c2ccc(Cl)cc2Cl)c2c1CCCCC2Cc1ccc(F)cc1 (stereo partly drawn) [Cpd 71, 1-(2,4-dichloro-phenyl)-8-(4-fluoro-benzyl)-1,4,5,6,7,8-hexahydro-cycloheptapyrazole-3-carboxylic acid [(2S)-1,3,3-trimethyl-bicyclo[2.2.1]hept-2-yl]-amide] | – | 32% | CB1 receptor binding average percent inhibition (CB1 receptor): ^(5)43% |
| COC(=O)[C@H](Cc1ccc(F)cc1)NC(=O)c1nn(-c2ccc(Cl)cc2Cl)c2c1CCCCC2Cc1ccc(F)cc1 (stereo partly drawn) [Cpd 72, (2S)-2-{[1-(2,4-dichloro-phenyl)-8-(4-fluoro-benzyl)-1,4,5,6,7,8-hexahydro-cycloheptapyrazole-3-carbonyl]-amino}-3-(4-fluoro-phenyl)-propionic acid methyl ester] | – | 10% | CB1 receptor binding average percent inhibition (CB1 receptor): ^(5)38% |
| COC(=O)[C@H](Cc1ccc(F)cc1)NC(=O)c1nn(C2CCCCC2)c2c1CCCCC2Cc1cccc(F)c1 (stereo partly drawn) [Cpd 73, (2S)-2-{[1-cyclohexyl-8-(3-fluoro-benzyl)-1,4,5,6,7,8-hexahydro-cycloheptapyrazole-3-carbonyl]-amino}-3-(4-fluoro-phenyl)-propionic acid methyl ester] | – | 8% | CB1 receptor binding average percent inhibition (CB1 receptor): ^(5)24% |
| CCOC(=O)[C@H]1C2C=CC(C2)[C@H]1NC(=O)c1nn(C2CCCCC2)c2c1CCCCC2Cc1cccc(F)c1 (stereo partly drawn) [Cpd 74, (2S,3R)-3-{[1-cyclohexyl-8-(3-fluoro-benzyl)-1,4,5,6,7,8-hexahydro-cycloheptapyrazole-3-carbonyl]-amino}-bicyclo[2.2.1]hept-5-ene-2-carboxylic acid ethyl ester] | – | 10% | CB1 receptor binding average percent inhibition (CB1 receptor): ^(5)1% |
